From ChEMBL document CHEMBL1201862, “PubChem BioAssay data set” (2004)
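Growth conditions: 96-well plates. Treatment: test compound, 48 hours, 5 concentrations. Analysis: linear interpolation between bracketing concentrations; unreached endpoints set to highest concentration. GI50 marks 50% less growth.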 Active and inactive are the calls of the source. No stated cut-off is given here; in the data, active = GI50 up to about 1.1 µM and inactive = higher.

Key:
Assay in all cases: inhibition of tumour cell growth, NCI panel, 48 h
[1] = system: MCF7
[2] = system: IGROV-1
[3] = system: HCT-15
[4] = system: SF-295
[5] = system: OVCAR-5
[6] = system: SNB-75
[7] = system: MDA-MB-231
[8] = system: OVCAR-8
[9] = system: HOP-62
[10] = system: LOX IMVI
[11] = system: KM12
[12] = system: ACHN
[13] = system: PC-3
[14] = system: SK-MEL-2
[15] = system: SR
[16] = system: 786-0
[17] = system: COLO 205
[18] = system: M14
[19] = system: TK-10
[20] = system: SK-OV-3

Row | SMILES | GI50 [1] | GI50 [2] | GI50 [3] | GI50 [4] | GI50 [5] | GI50 [6] | GI50 [7] | GI50 [8] | GI50 [9] | GI50 [10] | GI50 [11] | GI50 [12] | GI50 [13] | GI50 [14] | GI50 [15] | GI50 [16] | GI50 [17] | GI50 [18] | GI50 [19] | GI50 [20]
1 | CC(=O)Nc1cc2ccc(=O)oc2cc1Cl | > 100 µM (inactive) | > 100 µM (inactive) | > 100 µM | > 100 µM (inactive) | > 100 µM (inactive) | > 100 µM (inactive) | > 100 µM (inactive) | > 100 µM (inactive) | > 100 µM (inactive) | > 100 µM (inactive) | > 100 µM (inactive) | > 100 µM (inactive) | > 100 µM (inactive) | > 100 µM (inactive) | > 100 µM (inactive) | > 100 µM (inactive) | > 100 µM (inactive) | > 100 µM (inactive) |  | 
2 | C=C1CC[C@@H](CCC2CCC3(OC2)O[C@]2(O)CC[C@@]3(C)OC2(C)C)C(C)(C)[C@H]1C/C=C1\CCOC1=O (some centres undefined) | 1.76 µM (inactive) | 18.5 µM (inactive) | 11.3 µM |  | > 56.1 µM (inactive) | 19.6 µM (inactive) | 23.6 µM (inactive) | 15.3 µM (inactive) | 32.1 µM (inactive) | 0.131 µM (active) | 16.2 µM (inactive) | 10.7 µM (inactive) | 4.61 µM (inactive) | 17.5 µM (inactive) | 2.67 µM (inactive) | 11.8 µM (inactive) | 16.3 µM (inactive) | 17.7 µM (inactive) | 39.5 µM (inactive) | 20.4 µM (inactive)
3 | Cn1c(-c2ccco2)ccc1-c1ccc(C=O)o1 | 30.5 µM (inactive) | 38.2 µM (inactive) | 72.4 µM | > 100 µM (inactive) | > 100 µM (inactive) | > 100 µM (inactive) | 79.1 µM (inactive) | 37.3 µM (inactive) | > 100 µM (inactive) | 34.8 µM (inactive) | > 100 µM (inactive) | 49.7 µM (inactive) | > 100 µM (inactive) | > 100 µM (inactive) | 31 µM (inactive) | > 100 µM (inactive) | > 100 µM (inactive) | 35 µM (inactive) | > 100 µM (inactive) | > 100 µM (inactive)
4 | C/C(Cl)=N/OC(=O)Nc1ccc(F)c([N+](=O)[O-])c1 | 15.2 µM (inactive) | 6.97 µM (inactive) | 5.94 µM | 31.1 µM (inactive) | 24.2 µM (inactive) | 1.71 µM (inactive) | 17.5 µM (inactive) | 8.91 µM (inactive) | 18.2 µM (inactive) | 6.68 µM (inactive) | 17.1 µM (inactive) | 3.02 µM (inactive) | 17.8 µM (inactive) | 17.6 µM (inactive) | 8.57 µM (inactive) | 4 µM (inactive) | 2.34 µM (inactive) | 19.2 µM (inactive) | 6.1 µM (inactive) | 20.9 µM (inactive)
5 | CC(=O)OCC1OC(n2cnc3nc(Br)[nH]c(=O)c32)C(OC(C)=O)C1OC(C)=O (centres undefined) | 62.4 µM (inactive) | > 100 µM (inactive) | > 100 µM | > 100 µM (inactive) | > 100 µM (inactive) | 70.3 µM (inactive) | > 100 µM (inactive) | > 100 µM (inactive) | > 100 µM (inactive) | > 100 µM (inactive) | > 100 µM (inactive) | > 100 µM (inactive) | > 100 µM (inactive) | > 100 µM (inactive) | > 100 µM (inactive) | > 100 µM (inactive) | > 100 µM (inactive) | > 100 µM (inactive) | > 100 µM (inactive) | > 100 µM (inactive)
6 | Cc1cc(-c2nc3cc(F)ccc3s2)ccc1NC(=O)[C@@H](N)CCCCN | 0.01 µM (active) | < 0.0131 µM (active) | 4.33 µM | 2.65 µM (inactive) | 0.119 µM (active) | 1.82 µM (inactive) | 2.29 µM (inactive) | 4.82 µM (inactive) | 3.13 µM (inactive) | 1.82 µM (inactive) | 1.3 µM (inactive) | 6.04 µM (inactive) | 8.05 µM (inactive) | 2.89 µM (inactive) | 0.802 µM (active) | 2.69 µM (inactive) | 2.58 µM (inactive) | 2.14 µM (inactive) | < 0.0132 µM (active) | 8.26 µM (inactive)
7 | COc1cc2c(c3c1c(=O)c1ccccc1n3C)C=CC1(CCCCC1)O2 | 2.31 µM (inactive) | 2.15 µM (inactive) | 3.08 µM | 1.44 µM (inactive) | 5.73 µM (inactive) | 1.29 µM (inactive) | 4.83 µM (inactive) | 4.81 µM (inactive) | 2.3 µM (inactive) | 3.75 µM (inactive) | 0.603 µM (active) | 3.13 µM (inactive) | 3.78 µM (inactive) | 3.35 µM (inactive) | 1.95 µM (inactive) | 1.04 µM (active) | 4.34 µM (inactive) | 2.68 µM (inactive) | > 8.95 µM (inactive) | 5.53 µM (inactive)
8 | NC(=S)N/N=C\c1nccc2ccccc12 | 0.253 µM (active) | 0.42 µM (active) | 0.369 µM | 0.187 µM (active) | 0.264 µM (active) |  | 0.46 µM (active) | 0.209 µM (active) | 0.321 µM (active) | 0.324 µM (active) | 0.885 µM (active) | 0.0501 µM (active) | 0.685 µM (active) | 6 µM (inactive) | 0.126 µM (active) | 0.29 µM (active) | 0.302 µM (active) | 0.383 µM (active) | 0.551 µM (active) | 0.2 µM (active)
9 | O=C1c2c[nH]nc2C(c2ccccc2)N1c1ccccc1 (centres undefined) | > 10 µM (inactive) | > 10 µM (inactive) | > 10 µM | > 10 µM (inactive) | > 10 µM (inactive) | > 10 µM (inactive) | > 10 µM (inactive) | > 10 µM (inactive) | > 10 µM (inactive) | > 10 µM (inactive) | > 10 µM (inactive) | > 10 µM (inactive) | > 10 µM (inactive) | > 10 µM (inactive) | > 10 µM (inactive) | > 10 µM (inactive) | > 10 µM (inactive) | > 10 µM (inactive) | > 10 µM (inactive) | > 10 µM (inactive)
10 | OCCN(CCO)c1ccc2c(c1)Cc1ccccc1-2 | 24.5 µM (inactive) |  | 43.4 µM | 88.3 µM (inactive) | 48.3 µM (inactive) |  | 34 µM (inactive) | 52.5 µM (inactive) | 73.5 µM (inactive) | 29.9 µM (inactive) | 38.3 µM (inactive) | 32.1 µM (inactive) | 42.6 µM (inactive) | 26.7 µM (inactive) | 29.6 µM (inactive) | > 100 µM (inactive) | 18.4 µM (inactive) | 32.2 µM (inactive) | 22.1 µM (inactive) | 50.6 µM (inactive)
11 | c1cc2nsnc2c2c[nH]cc12 | 34.7 µM (inactive) | 43.7 µM (inactive) | 99.5 µM | > 100 µM (inactive) | 47.4 µM (inactive) | 50.6 µM (inactive) | 56.6 µM (inactive) | 34.2 µM (inactive) | > 100 µM (inactive) | > 100 µM (inactive) | > 100 µM (inactive) | 81.5 µM (inactive) | 45.1 µM (inactive) | > 100 µM (inactive) | 96.6 µM (inactive) | > 100 µM (inactive) | > 100 µM (inactive) |  | > 100 µM (inactive) | > 100 µM (inactive)
12 | Cc1nc(C(N)=S)sc1C(=O)C/C(=N/N)C(=O)Nc1ccc(Cl)cc1 | 43.1 µM (inactive) | 16.5 µM (inactive) | > 10 µM | 84.9 µM (inactive) | > 100 µM (inactive) | > 100 µM (inactive) | > 100 µM (inactive) | 84.1 µM (inactive) | 50.8 µM (inactive) | 82.8 µM (inactive) | 77.1 µM (inactive) | 44.6 µM (inactive) | 72.9 µM (inactive) | > 100 µM (inactive) | > 100 µM (inactive) | 40.6 µM (inactive) |  | > 100 µM (inactive) | > 100 µM (inactive) | > 100 µM (inactive)
13 | COc1ccccc1N1C(=O)CSC1c1cccc(Oc2ccccc2)c1 (centres undefined) | 18.2 µM (inactive) |  | 17.2 µM | 19.4 µM (inactive) | 18.5 µM (inactive) | 18.7 µM (inactive) | 16.4 µM (inactive) | 17.9 µM (inactive) | 20.1 µM (inactive) | 17.1 µM (inactive) | 20.1 µM (inactive) | 20.9 µM (inactive) | 17.6 µM (inactive) | 15.8 µM (inactive) | 24.8 µM (inactive) | 17.7 µM (inactive) | 18.6 µM (inactive) | 17.7 µM (inactive) | 25.4 µM (inactive) | 34.8 µM (inactive)
14 | C=C1c2[nH]c3ccccc3c2C2C(CC)C1CCN2C (centres undefined) | 56.1 µM (inactive) | 15.2 µM (inactive) | 90.8 µM | 55.8 µM (inactive) | > 100 µM (inactive) |  | 48.4 µM (inactive) | 53.1 µM (inactive) | > 100 µM (inactive) | 49.7 µM (inactive) | > 100 µM (inactive) | > 100 µM (inactive) | 32.8 µM (inactive) | > 100 µM (inactive) | 34.8 µM (inactive) | > 100 µM (inactive) | 16.7 µM (inactive) | 19.3 µM (inactive) | 33.3 µM (inactive) | > 100 µM (inactive)
15 | CC(=O)c1c(CO[N+](=O)[O-])[n+]([O-])c2ccccc2[n+]1[O-] | 74.3 µM (inactive) | 41.5 µM (inactive) | 30.8 µM | > 100 µM (inactive) | > 100 µM (inactive) | > 100 µM (inactive) | 53.7 µM (inactive) | > 100 µM (inactive) | 98.2 µM (inactive) | 58.5 µM (inactive) |  | 61.1 µM (inactive) | > 100 µM (inactive) | > 100 µM (inactive) | 43.9 µM (inactive) | > 100 µM (inactive) | 61 µM (inactive) | 35.1 µM (inactive) | > 100 µM (inactive) | > 100 µM (inactive)
